Measurements reported in patent US9365588B2, “Benzoxazines as modulators of ion channels” (Vertex Pharmaceuticals Incorporated, priority 2011, dated 2016).

Target: human NaV 1.7 (Homo sapiens, UniProt Q15858)
Assay: E-VIPR optical membrane potential assay with electrical stimulation
Type: cell-based
Settings: sodium channel inhibition; read-out: Binned Activity Data (IC50)
Excerpt: Assays for Detecting and Measuring NaV Inhibition Properties of Compound E-VIPR Optical Membrane Potential Assay Method with Electrical Stimulation
Sodium channels are voltage-dependent proteins that can be activated by inducing membrane voltage changes by applying electric fields. The electrical stimulation instrument and methods of use are described in Ion Channel Assay Methods PCT/US01/21652, herein incorporated by reference and are referred to as E-VIPR. The instrument comprises a microtiter plate handler, an optical system for exciting the coumarin dye while simultaneously recording the coumarin and oxonol emissions, a waveform generator, a current- or voltage-controlled amplifier, and a device for inserting electrodes in well. Under integrated computer control, this instrument passes user-programmed electrical stimulus protocols to cells within the wells of the microtiter plate.
24 hours before the assay on E-VIPR, HEK cells expressing human NaV subtype, like NaV 1.7, are seeded in 384-well poly-lysine coated plates at 15,000-20,000 cells per well. Other subtypes are performed in an analogous mode in a cell line expressing the NaV of interest. HEK cells are grown in media (exact composition is specific to each cell type and NaV subtype) supplemented with 10% FBS (Fetal Bovine Serum, qualified; GibcoBRL #16140-071) and 1% Pen-Strep (Penicillin-Streptomycin; GibcoBRL #15140-122). Cells are grown in vented cap flasks, in 90% humidity and 10% CO2, to 100% confluence. They are usually split by trypsinization 1:10 or 1:20, depending on scheduling needs, and grown for 2-3 days before the next split.
Bath1 buffer. Glucose 10 mM (1.8 g/L), Magnesium Chloride (Anhydrous), 1 mM (0.095 g/L), Calcium Chloride, 2 mM (0.222 g/L), HEPES 10 mM (2.38 g/L), Potassium Chloride, 4.5 mM (0.335 g/L), Sodium Chloride 160 mM (9.35 g/L).
Hexyl Dye Solution: Bath1 Buffer+0.5% β-cyclodextrin (make this prior to use, Sigma #C4767), 8 μM CC2-DMPE+2.5 μM DiSBAC6(3). To make the solution Add volume of 10% Pluronic F127 stock equal to volumes of CC2-DMPE+DiSBAC6(3). The order of preparation is first mix Pluronic and CC2-DMPE, then add DiSBAC6(3) while vortexing, then add Bath1+β-Cyclodextrin.
1) Pre-spot compounds (in neat DMSO) into compound plates. Vehicle control (neat DMSO), the positive control (20 mM DMSO stock tetracaine, 125 μM final in assay) and test compounds are added to each well at 160× desired final concentration in neat DMSO. Final compound plate volume will be 80 μL (80-fold intermediate dilution from 1 μL DMSO spot; 160-fold final dilution after transfer to cell plate). Final DMSO concentration for all wells in assay is 0.625%.
2) Prepare Hexyl Dye Solution.
3) Prepare cell plates. On the day of the assay, medium is aspirated and cells are washed three times with 100 μL of Bath1 Solution, maintaining 25 μL residual volume in each well.
4) Dispense 25 μL per well of Hexyl Dye Solution into cell plates. Incubate for 20-35 minutes at room temp or ambient conditions.
5) Dispense 80 μL per well of Bath1 into compound plates. Acid Yellow-17 (1 mM) is added and Potassium Chloride can be altered from 4.5 to 20 mM depending on the NaV subtype and assay sensitivity.
6) Wash cell plates three times with 100 μL per well of Bath1, leaving 25 μL of residual volume. Then transfer 25 uL per well from Compound Plates to Cell Plates. Incubate for 20-35 minutes at room temp/ambient condition
7) Read Plate on E-VIPR. Use the current-controlled amplifier to deliver stimulation wave pulses for typically 9 seconds and a scan rate of 400 Hz. A pre-stimulus recording is performed for 0.5 seconds to obtain the un-stimulated intensities baseline. The stimulatory waveform is applied for 9 seconds followed by 0.5 seconds of post-stimulation recording to examine the relaxation to the resting state. […]

Sequence of human NaV 1.7 (Q15858 whole entry): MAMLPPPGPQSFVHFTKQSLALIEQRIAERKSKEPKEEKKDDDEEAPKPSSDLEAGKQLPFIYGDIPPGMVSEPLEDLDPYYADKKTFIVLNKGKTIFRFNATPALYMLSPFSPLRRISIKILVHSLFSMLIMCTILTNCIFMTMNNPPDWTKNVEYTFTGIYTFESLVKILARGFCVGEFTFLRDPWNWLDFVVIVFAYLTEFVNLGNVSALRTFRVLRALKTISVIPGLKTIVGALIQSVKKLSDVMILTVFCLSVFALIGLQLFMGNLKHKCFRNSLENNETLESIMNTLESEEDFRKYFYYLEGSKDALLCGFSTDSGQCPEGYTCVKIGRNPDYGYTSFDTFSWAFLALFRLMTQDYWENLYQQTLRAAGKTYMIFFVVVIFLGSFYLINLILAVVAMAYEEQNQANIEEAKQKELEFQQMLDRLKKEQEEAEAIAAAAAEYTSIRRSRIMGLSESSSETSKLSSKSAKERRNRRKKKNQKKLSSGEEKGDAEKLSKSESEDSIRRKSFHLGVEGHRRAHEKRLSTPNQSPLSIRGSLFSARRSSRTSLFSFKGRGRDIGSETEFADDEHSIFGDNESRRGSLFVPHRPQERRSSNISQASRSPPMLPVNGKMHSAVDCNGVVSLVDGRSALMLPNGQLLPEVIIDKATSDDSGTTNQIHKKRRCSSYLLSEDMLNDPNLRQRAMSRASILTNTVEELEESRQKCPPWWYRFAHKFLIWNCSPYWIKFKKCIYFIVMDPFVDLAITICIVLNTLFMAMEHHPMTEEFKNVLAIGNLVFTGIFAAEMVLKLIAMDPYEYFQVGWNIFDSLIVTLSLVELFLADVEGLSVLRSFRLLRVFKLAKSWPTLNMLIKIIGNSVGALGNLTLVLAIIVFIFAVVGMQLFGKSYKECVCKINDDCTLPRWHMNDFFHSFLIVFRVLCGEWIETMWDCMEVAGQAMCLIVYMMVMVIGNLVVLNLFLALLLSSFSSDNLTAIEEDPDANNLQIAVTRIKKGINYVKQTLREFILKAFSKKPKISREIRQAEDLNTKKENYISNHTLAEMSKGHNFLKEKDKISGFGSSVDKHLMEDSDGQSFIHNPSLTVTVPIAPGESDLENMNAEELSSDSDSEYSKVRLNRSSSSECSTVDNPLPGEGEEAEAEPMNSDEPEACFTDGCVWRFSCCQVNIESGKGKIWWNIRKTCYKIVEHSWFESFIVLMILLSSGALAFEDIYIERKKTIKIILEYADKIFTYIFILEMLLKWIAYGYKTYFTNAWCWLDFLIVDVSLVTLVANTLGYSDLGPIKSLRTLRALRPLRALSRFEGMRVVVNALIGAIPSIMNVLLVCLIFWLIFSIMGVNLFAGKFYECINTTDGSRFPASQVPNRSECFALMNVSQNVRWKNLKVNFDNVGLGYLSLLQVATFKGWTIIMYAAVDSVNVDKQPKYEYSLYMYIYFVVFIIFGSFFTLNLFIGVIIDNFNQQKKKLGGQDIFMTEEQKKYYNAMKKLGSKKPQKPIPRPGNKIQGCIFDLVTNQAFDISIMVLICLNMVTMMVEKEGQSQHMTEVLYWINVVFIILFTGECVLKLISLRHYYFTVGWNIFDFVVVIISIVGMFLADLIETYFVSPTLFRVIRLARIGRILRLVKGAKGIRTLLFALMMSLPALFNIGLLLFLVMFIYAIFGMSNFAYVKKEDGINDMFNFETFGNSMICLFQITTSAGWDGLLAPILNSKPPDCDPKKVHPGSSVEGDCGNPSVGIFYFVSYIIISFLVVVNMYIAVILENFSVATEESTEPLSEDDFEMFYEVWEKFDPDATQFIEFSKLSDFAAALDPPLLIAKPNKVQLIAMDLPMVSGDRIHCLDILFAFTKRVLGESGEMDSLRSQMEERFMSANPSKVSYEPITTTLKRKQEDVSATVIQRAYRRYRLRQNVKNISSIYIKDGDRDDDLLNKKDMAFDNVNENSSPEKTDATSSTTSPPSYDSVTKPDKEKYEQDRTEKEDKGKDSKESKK

Row | Compound | IC50
1 | Cc1cc(C(=O)N2CCC3(CC2)Oc2ccccc2-n2c(C#N)ccc23)ccc1O [Compound 76] | ≤ 2000 nM
2 | CC(C)(C)S(=O)(=O)c1ccc(C(=O)N2CCC3(CC2)Oc2ccccc2-c2nn(C(F)(F)F)cc23)cc1 [Compound 78] | ≤ 2000 nM
3 | COc1ccc(Cl)cc1C(=O)N1CCC2(CC1)Oc1ccccc1-c1c2cnn1C [Compound 80] | > 5000 nM
4 | COc1ccccc1C(=O)N1CCC2(CC1)Oc1cc(Cl)ccc1-n1cccc12 [Compound 81] | ≤ 2000 nM
5 | COCCn1ncc2c1-c1ccccc1OC21CCN(C(=O)c2ccc(C(C)(C)C)c(OC)c2)CC1 [Compound 82] | ≤ 2000 nM
6 | COCCCOc1ccc(C(=O)N2CCC3(CC2)Oc2ccccc2-n2cccc23)cc1OC [Compound 83] | ≤ 2000 nM
7 | Cc1cc(OC(F)(F)F)ccc1C(=O)N1CCC2(CC1)Oc1ccccc1-c1c2cnn1C [Compound 84] | 2000 to 5000 nM
8 | Cn1ncc2c1-c1ccccc1OC21CCN(C(=O)c2ccc(=O)n(C)c2)CC1 [Compound 87] | > 5000 nM
9 | COc1cc(C(=O)N2CCC3(CC2)Oc2cc(Cl)ccc2-n2cccc23)ccc1OC[C@H](O)CO [Compound 90] | ≤ 2000 nM
10 | Cc1nc2c(C(=O)N3CCC4(CC3)Oc3ccccc3-c3c4cnn3C)cccc2[nH]1 [Compound 92] | 2000 to 5000 nM
11 | COc1cc(S(C)(=O)=O)ccc1C(=O)N1CCC2(CC1)Oc1ccccc1-c1c2cnn1C [Compound 93] | 2000 to 5000 nM
12 | COc1cc(OC(C)(C)C)ccc1C(=O)N1CCC2(CC1)Oc1ccccc1-c1c2cnn1C [Compound 94] | ≤ 2000 nM
13 | COC[C@H](C)Oc1ccc(C(=O)N2CCC3(CC2)Oc2ccccc2-n2cccc23)cc1C(F)(F)F [Compound 95] | ≤ 2000 nM
14 | COc1cc(C(=O)N2CCC3(CC2)Oc2ccccc2-n2cccc23)ccc1OCCO [Compound 97] | ≤ 2000 nM
15 | CCOc1cc(C(=O)N2CCC3(CC2)Oc2ccccc2-c2nn(C)cc23)ccc1OC [Compound 98] | ≤ 2000 nM
16 | Cn1ncc2c1-c1ccccc1OC21CCN(C(=O)c2cccn3ccnc23)CC1 [Compound 99] | ≤ 2000 nM
17 | COC(=O)c1c(OC)cccc1C(=O)N1CCC2(CC1)Oc1ccccc1-n1c(C#N)ccc12 [Compound 101] | ≤ 2000 nM
18 | Cn1ncc2c1-c1ccccc1OC21CCN(C(=O)c2ccccc2O)CC1 [Compound 102] | > 5000 nM
19 | CC(C)(CO)c1ccc(C(=O)N2CCC3(CC2)Oc2cc(Cl)ccc2-n2cccc23)cc1F [Compound 103] | ≤ 2000 nM
20 | Cn1ncc2c1-c1ccccc1OC21CCN(C(=O)c2ccc(N3CCCCC3)nc2)CC1 [Compound 104] | > 5000 nM

Row | Compound | IC50
21 | Cc1ccc(C(=O)N2CCC3(CC2)Oc2cc(Cl)ccc2-n2cccc23)cc1C [Compound 105] | ≤ 2000 nM
22 | CC(C)(CO)c1ccc(C(=O)N2CCC3(CC2)Oc2cc(Cl)ccc2-n2cccc23)cc1 [Compound 106] | ≤ 2000 nM
23 | Cn1ncc2c1-c1ccc(Cl)cc1OC21CCN(C(=O)c2cccc(F)c2OC(F)F)CC1 [Compound 108] | ≤ 2000 nM
24 | COc1c(C)cccc1C(=O)N1CCC2(CC1)Oc1ccccc1-c1c2cnn1C [Compound 109] | ≤ 2000 nM
25 | COc1ccc(C(=O)N2CCC3(CC2)Oc2cc(Cl)ccc2-n2cccc23)c(C)c1 [Compound 111] | ≤ 2000 nM
26 | COc1cc(C(=O)N2CCC3(CC2)Oc2ccccc2-n2cccc23)ccc1O[C@@H]1CCOC1 [Compound 112] | ≤ 2000 nM
27 | Cn1cc2c(n1)-c1ccccc1OC21CCN(C(=O)c2cccc3cccnc23)CC1 [Compound 113] | ≤ 2000 nM
28 | COc1cc(C(=O)N2CCC3(CC2)Oc2ccccc2-n2c(C(C)=O)ccc23)ccc1OC(C)C [Compound 114] | ≤ 2000 nM
29 | COc1ccc(F)cc1C(=O)N1CCC2(CC1)Oc1ccccc1-n1c(C#N)ccc12 [Compound 115] | ≤ 2000 nM
30 | COc1cc(OC(F)(F)F)ccc1C(=O)N1CCC2(CC1)Oc1cc(Cl)ccc1-n1cccc12 [Compound 116] | ≤ 2000 nM
31 | CC(C)Oc1ccc(C(=O)N2CCC3(CC2)Oc2ccc(F)cc2-c2nn(C)cc23)cc1 [Compound 117] | ≤ 2000 nM
32 | CC(C)S(=O)(=O)c1ccc(C(=O)N2CCC3(CC2)Oc2ccccc2-n2ccnc23)cc1 [Compound 119] | 2000 to 5000 nM
33 | COc1cc(OC(F)(F)F)ccc1C(=O)N1CCC2(CC1)Oc1ccccc1-c1c2cnn1C [Compound 121] | ≤ 2000 nM
34 | Cc1cc(C(=O)N2CCC3(CC2)Oc2ccccc2-n2c(C(F)(F)F)ccc23)ccc1S(C)(=O)=O [Compound 123] | ≤ 2000 nM
35 | N#Cc1ccc2n1-c1ccccc1OC21CCN(C(=O)c2cccc(F)c2OC(F)F)CC1 [Compound 125] | ≤ 2000 nM
36 | CC[C@H](C)Oc1ccc(C(=O)N2CCC3(CC2)Oc2ccccc2-n2cccc23)cc1C(F)(F)F [Compound 126] | ≤ 2000 nM
37 | COc1cc(F)c(F)cc1C(=O)N1CCC2(CC1)Oc1ccccc1-c1c2cnn1C [Compound 127] | > 5000 nM
38 | CCCOc1ccc(C(=O)N2CCC3(CC2)Oc2ccccc2-c2c3cnn2C)cc1 [Compound 128] | ≤ 2000 nM
39 | COc1ccc(C(=O)N2CCC3(CC2)Oc2cc(Cl)ccc2-n2cccc23)c(C(F)(F)F)c1 [Compound 129] | ≤ 2000 nM
40 | CCOc1ncccc1C(=O)N1CCC2(CC1)Oc1ccccc1-n1c(C(F)(F)F)ccc12 [Compound 130] | ≤ 2000 nM

Row | Compound | IC50
41 | CC[C@@H](C)Oc1ccc(C(=O)N2CCC3(CC2)Oc2ccccc2-n2cccc23)cc1C(F)(F)F [Compound 131] | ≤ 2000 nM
42 | CC(C)Oc1ccc(C(=O)N2CCC3(CC2)Oc2ccccc2-c2c3cnn2C)cc1Cl [Compound 135] | ≤ 2000 nM
43 | CCc1ccc(C(=O)N2CCC3(CC2)Oc2cc(CN)ccc2-n2cccc23)cc1OC [Compound 137] | > 5000 nM
44 | Cn1ncc2c1-c1ccccc1OC21CCN(C(=O)c2cccnc2Oc2ccccc2)CC1 [Compound 138] | ≤ 2000 nM
45 | COCCOc1ccc(C(=O)N2CCC3(CC2)Oc2cc(Cl)ccc2-n2cccc23)cc1OC [Compound 139] | ≤ 2000 nM
46 | COc1cc(C(=O)N2CCC3(CC2)Oc2ccccc2-n2cccc23)ccc1OC[C@@H](O)CO [Compound 140] | ≤ 2000 nM
47 | Cc1cc(C(=O)N2CCC3(CC2)Oc2ccccc2-c2c3cnn2C)ccc1S(C)(=O)=O [Compound 141] | ≤ 2000 nM
48 | CC[C@H](C)Oc1ccc(C(=O)N2CCC3(CC2)Oc2cc(F)ccc2-n2cccc23)cc1OC [Compound 142] | ≤ 2000 nM
49 | COc1ccc(C(=O)N2CCC3(CC2)Oc2ccccc2-c2c3cnn2C)cc1C(F)(F)F [Compound 143] | 2000 to 5000 nM
50 | CC[C@@H](C)Oc1ccc(C(=O)N2CCC3(CC2)Oc2ccccc2-n2cccc23)cc1C#N [Compound 145] | ≤ 2000 nM
51 | COc1cc(C(=O)N2CCC3(CC2)Oc2ccccc2-c2c3cnn2C)ccc1OC[C@H](C)OC [Compound 146] | ≤ 2000 nM
52 | Cn1cccc(C(=O)N2CCC3(CC2)Oc2cc(Cl)ccc2-n2cccc23)c1=O [Compound 147] | ≤ 2000 nM
53 | CC(C)NC(=O)c1ccc(C(=O)N2CCC3(CC2)Oc2ccccc2-c2c3cnn2C)cc1 [Compound 150] | > 5000 nM
54 | O=C(c1ccc(S(=O)(=O)[C@H]2CCOC2)cc1)N1CCC2(CC1)Oc1ccccc1-n1c(C(F)(F)F)ccc12 [Compound 151] | ≤ 2000 nM
55 | Cc1cc(C(=O)N2CCC3(CC2)Oc2ccccc2-n2ccnc23)ccc1OC(C)C [Compound 153] | ≤ 2000 nM
56 | CCn1ncc2c1-c1ccccc1OC21CCN(C(=O)c2cccc(F)c2OC)CC1 [Compound 154] | ≤ 2000 nM
57 | Cn1ncc2c1-c1ccccc1OC21CCN(C(=O)c2ccnc(N3CCCCC3)c2)CC1 [Compound 155] | ≤ 2000 nM
58 | COc1cc(C(=O)N2CCC3(CC2)Oc2ccccc2-n2c(C#N)ccc23)ccc1OC(C)C [Compound 156] | ≤ 2000 nM
